Data from PubChem BioAssay (NCI).
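Growth conditions: 96-well plates. Treatment: test compound, 48 hours, 5 concentrations. Analysis: linear interpolation between bracketing concentrations; unreached endpoints set to highest concentration. At the TGI there is no net growth.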

Columns and labels:
Assay in all cases: NCI anticancer screen, dose series, 48 h
786-0 renal = test system: 786-0 renal
A498 renal = test system: A498 renal
A549 NSCLC = test system: A549 NSCLC
ACHN renal = test system: ACHN renal
CAKI-1 renal = test system: CAKI-1 renal
CCRF-CEM leukemia = test system: CCRF-CEM leukemia
COLO 205 colon = test system: COLO 205 colon
DLD-1 colon = test system: DLD-1 colon
DMS 114 small cell lung = test system: DMS 114 small cell lung
DMS 273 small cell lung = test system: DMS 273 small cell lung
EKVX NSCLC = test system: EKVX NSCLC
HCC-2998 colon = test system: HCC-2998 colon
HCT-116 colon = test system: HCT-116 colon
HCT-15 colon = test system: HCT-15 colon
HL-60(TB) leukemia = test system: HL-60(TB) leukemia
HOP-62 NSCLC = test system: HOP-62 NSCLC
HOP-92 NSCLC = test system: HOP-92 NSCLC
HT29 colon = test system: HT29 colon
IGROV1 ovarian = test system: IGROV1 ovarian
K-562 leukemia = test system: K-562 leukemia
KM12 colon = test system: KM12 colon
KM20L2 colon = test system: KM20L2 colon
LOX IMVI melanoma = test system: LOX IMVI melanoma
LXFL 529 NSCLC = test system: LXFL 529 NSCLC
M14 melanoma = test system: M14 melanoma
M19-MEL melanoma = test system: M19-MEL melanoma
MALME-3M melanoma = test system: MALME-3M melanoma
MOLT-4 leukemia = test system: MOLT-4 leukemia
NCI-H226 lung = test system: NCI-H226 lung
NCI-H23 lung = test system: NCI-H23 lung
NCI-H460 lung = test system: NCI-H460 lung
NCI-H522 lung = test system: NCI-H522 lung
OVCAR-3 ovarian = test system: OVCAR-3 ovarian
OVCAR-4 ovarian = test system: OVCAR-4 ovarian
OVCAR-5 ovarian = test system: OVCAR-5 ovarian
OVCAR-8 ovarian = test system: OVCAR-8 ovarian
RPMI-8226 leukemia = test system: RPMI-8226 leukemia
RXF 393 renal = test system: RXF 393 renal
RXF-631 renal = test system: RXF-631 renal
SF-268 CNS = test system: SF-268 CNS
SF-295 CNS = test system: SF-295 CNS
SF-539 CNS = test system: SF-539 CNS
SK-MEL-2 melanoma = test system: SK-MEL-2 melanoma
SK-MEL-28 melanoma = test system: SK-MEL-28 melanoma
SK-MEL-5 melanoma = test system: SK-MEL-5 melanoma
SK-OV-3 ovarian = test system: SK-OV-3 ovarian
SN12C renal = test system: SN12C renal
SNB-19 CNS = test system: SNB-19 CNS
SNB-75 CNS = test system: SNB-75 CNS
SNB-78 CNS = test system: SNB-78 CNS
SW-620 colon = test system: SW-620 colon
TK-10 renal = test system: TK-10 renal
U251 CNS = test system: U251 CNS
UACC-257 melanoma = test system: UACC-257 melanoma
UACC-62 melanoma = test system: UACC-62 melanoma
UO-31 renal = test system: UO-31 renal
XF 498 CNS = test system: XF 498 CNS
SR leukemia = test system: SR leukemia

CCc1c(C)[nH]c2c1/C(=N/N=C1\CCCc3[nH]c(C)c(CC)c31)CCC2 showed a TGI (786-0 renal) of over 100 µM, a TGI (A498 renal) of 75 µM and a TGI (A549 NSCLC) of over 100 µM. For the same compound, the TGI (ACHN renal) was 69.2 µM, the TGI (CAKI-1 renal) was over 100 µM and the TGI (CCRF-CEM leukemia) was 76.4 µM. The TGI (COLO 205 colon) was 41.6 µM, the TGI (DLD-1 colon) was over 100 µM and the TGI (DMS 114 small cell lung) was 34.1 µM. The TGI (DMS 273 small cell lung) was 36.7 µM, the TGI (EKVX NSCLC) was over 100 µM and the TGI (HCC-2998 colon) was over 100 µM. For the same compound, the TGI (HCT-116 colon) was 50.5 µM, the TGI (HCT-15 colon) was 52.5 µM and the TGI (HL-60(TB) leukemia) was 36.4 µM. For the same compound, the TGI (HOP-62 NSCLC) was over 100 µM, the TGI (HOP-92 NSCLC) was 51.5 µM and the TGI (HT29 colon) was 81.3 µM. For the same compound, the TGI (IGROV1 ovarian) was 83.6 µM, the TGI (K-562 leukemia) was over 100 µM and the TGI (KM12 colon) was 31.3 µM. The TGI (KM20L2 colon) was over 100 µM, the TGI (LOX IMVI melanoma) was 54.6 µM and the TGI (LXFL 529 NSCLC) was 30.2 µM. It also gave a TGI (M14 melanoma) of 41.2 µM, a TGI (M19-MEL melanoma) of 48.3 µM and a TGI (MALME-3M melanoma) of over 100 µM. The TGI (MOLT-4 leukemia) was 39.4 µM, the TGI (NCI-H226 lung) was 39.7 µM and the TGI (NCI-H23 lung) was 62.7 µM. The TGI (NCI-H460 lung) was 43.2 µM, the TGI (NCI-H522 lung) was 33.1 µM and the TGI (OVCAR-3 ovarian) was 39.7 µM. For the same compound, the TGI (OVCAR-4 ovarian) was 52 µM, the TGI (OVCAR-5 ovarian) was over 100 µM and the TGI (OVCAR-8 ovarian) was 78.2 µM. For the same compound, the TGI (RPMI-8226 leukemia) was 33.9 µM, the TGI (RXF 393 renal) was 70.5 µM and the TGI (RXF-631 renal) was over 100 µM. It also gave a TGI (SF-268 CNS) of 61.9 µM, a TGI (SF-295 CNS) of 46.6 µM and a TGI (SF-539 CNS) of 81.5 µM. It also gave a TGI (SK-MEL-2 melanoma) of over 100 µM, a TGI (SK-MEL-28 melanoma) of 35.9 µM and a TGI (SK-MEL-5 melanoma) of 27.6 µM. For the same compound, the TGI (SK-OV-3 ovarian) was 78.4 µM, the TGI (SN12C renal) was over 100 µM and the TGI (SNB-19 CNS) was over 100 µM. It also gave a TGI (SNB-75 CNS) of 50.1 µM, a TGI (SNB-78 CNS) of 85.8 µM and a TGI (SW-620 colon) of 78 µM. It also gave a TGI (TK-10 renal) of over 100 µM, a TGI (U251 CNS) of 35.4 µM and a TGI (UACC-257 melanoma) of 31.9 µM. It also gave a TGI (UACC-62 melanoma) of 48.8 µM, a TGI (UO-31 renal) of 39.5 µM and a TGI (XF 498 CNS) of 34.4 µM.

Compound CN(C)CCCCC1CCN(CC(=O)N2c3ccccc3NC(=O)c3ccccc32)CC1 has a TGI (786-0 renal) of over 100 µM, a TGI (A498 renal) of over 100 µM and a TGI (A549 NSCLC) of over 100 µM. For the same compound, the TGI (CAKI-1 renal) was over 100 µM, the TGI (CCRF-CEM leukemia) was over 100 µM and the TGI (COLO 205 colon) was over 100 µM. For the same compound, the TGI (DLD-1 colon) was over 100 µM, the TGI (DMS 114 small cell lung) was over 100 µM and the TGI (DMS 273 small cell lung) was over 100 µM. The TGI (EKVX NSCLC) was over 100 µM, the TGI (HCC-2998 colon) was over 100 µM and the TGI (HCT-116 colon) was over 100 µM. It also gave a TGI (HL-60(TB) leukemia) of over 100 µM, a TGI (HOP-62 NSCLC) of over 100 µM and a TGI (HOP-92 NSCLC) of over 100 µM. The TGI (HT29 colon) was over 100 µM, the TGI (K-562 leukemia) was over 100 µM and the TGI (KM12 colon) was over 100 µM. It also gave a TGI (LXFL 529 NSCLC) of over 100 µM, a TGI (M14 melanoma) of 72.9 µM and a TGI (M19-MEL melanoma) of over 100 µM. The TGI (MALME-3M melanoma) was over 100 µM, the TGI (MOLT-4 leukemia) was over 100 µM and the TGI (NCI-H226 lung) was over 100 µM. For the same compound, the TGI (NCI-H23 lung) was over 100 µM, the TGI (NCI-H522 lung) was over 100 µM and the TGI (OVCAR-3 ovarian) was over 100 µM. The TGI (OVCAR-4 ovarian) was over 100 µM, the TGI (OVCAR-8 ovarian) was over 100 µM and the TGI (RPMI-8226 leukemia) was over 100 µM. For the same compound, the TGI (RXF-631 renal) was over 100 µM, the TGI (SF-268 CNS) was over 100 µM and the TGI (SF-295 CNS) was over 100 µM. The TGI (SF-539 CNS) was over 100 µM, the TGI (SK-MEL-2 melanoma) was over 100 µM and the TGI (SK-MEL-28 melanoma) was over 100 µM. For the same compound, the TGI (SK-MEL-5 melanoma) was over 100 µM, the TGI (SK-OV-3 ovarian) was over 100 µM and the TGI (SN12C renal) was over 100 µM. The TGI (SNB-19 CNS) was over 100 µM, the TGI (SNB-75 CNS) was over 100 µM and the TGI (SNB-78 CNS) was over 100 µM. It also gave a TGI (SR leukemia) of over 100 µM, a TGI (SW-620 colon) of over 100 µM and a TGI (TK-10 renal) of over 100 µM. It also gave a TGI (UACC-257 melanoma) of over 100 µM, a TGI (UACC-62 melanoma) of over 100 µM and a TGI (UO-31 renal) of over 100 µM. For the same compound, the TGI (XF 498 CNS) was over 100 µM.
